Experimental data from US11225645B2 (priority 2002, dated 2022).
“Also recorded” adds a separate entry of the source. Where two headings read alike, the source gives them in different places.

What was measured:
[1] = test system: coenzyme-binding glucose dehydrogenase; test: Inhibitor test, additives added to Enzymatic activity measurement method 1; format: biochemical, Aspergillus terreus
[2] = test system: coenzyme-binding glucose dehydrogenase; test: Substrate specificity and Km value, Enzymatic activity measurement method 1; format: biochemical, Aspergillus terreus
Protocol: Employing each of D-glucose and other substrates (each at 333 mM as a final concentration, except for D-cellobiose at 193 mM, D-trehalose and D-raffinose at 121 mM), the enzymatic activity of this enzyme was measured by the Enzymatic activity measurement method 1. The activity on each substrate is represented as a relative value to the activity of this enzyme on D-glucose being regarded as 100%, and shown in Table 1.
Similarly, the relative reactivities (enzymatic activity) on D-glucose and maltose each at two final concentrations, i.e. 550 mM and 100 mM, were measured. The results are represented as relative values based on the value on D-glucose.

[3] = test system: glucose dehydrogenase whose coenzyme is the pyrroloquinolinequinone derived from Pseudomonas sp.; details: relative to glucose = 100%; cited from earlier work
[4] = target: glucose dehydrogenase whose coenzyme is the pyrroloquinolinequinone derived from Gluconobacter suboxydans (Gluconobacter oxydans, UniProt P27175); details: relative to glucose = 100%; cited from earlier work
[5] = target: glucose dehydrogenase whose coenzyme is the pyrroloquinolinequinone derived from Escherichia coli (Escherichia coli, UniProt P15877); details: relative to glucose = 100%; cited from earlier work
[6] = test system: glucose dehydrogenase whose coenzyme is a flavin adenine dinucleotide of Aspergillus oryzae; details: cited from earlier work
[7] = additive 1 mM final concentration
[8] = substrate 333 mM final, activity on D-glucose = 100%
[9] = substrate final conc. 100 mM, D-glucose = 100%
[10] = substrate final conc. 550 mM, D-glucose = 100%
[11] = substrate 121 mM final, activity on D-glucose = 100%

Sequence of glucose dehydrogenase whose coenzyme is the pyrroloquinolinequinone derived from Escherichia coli (P15877 whole entry): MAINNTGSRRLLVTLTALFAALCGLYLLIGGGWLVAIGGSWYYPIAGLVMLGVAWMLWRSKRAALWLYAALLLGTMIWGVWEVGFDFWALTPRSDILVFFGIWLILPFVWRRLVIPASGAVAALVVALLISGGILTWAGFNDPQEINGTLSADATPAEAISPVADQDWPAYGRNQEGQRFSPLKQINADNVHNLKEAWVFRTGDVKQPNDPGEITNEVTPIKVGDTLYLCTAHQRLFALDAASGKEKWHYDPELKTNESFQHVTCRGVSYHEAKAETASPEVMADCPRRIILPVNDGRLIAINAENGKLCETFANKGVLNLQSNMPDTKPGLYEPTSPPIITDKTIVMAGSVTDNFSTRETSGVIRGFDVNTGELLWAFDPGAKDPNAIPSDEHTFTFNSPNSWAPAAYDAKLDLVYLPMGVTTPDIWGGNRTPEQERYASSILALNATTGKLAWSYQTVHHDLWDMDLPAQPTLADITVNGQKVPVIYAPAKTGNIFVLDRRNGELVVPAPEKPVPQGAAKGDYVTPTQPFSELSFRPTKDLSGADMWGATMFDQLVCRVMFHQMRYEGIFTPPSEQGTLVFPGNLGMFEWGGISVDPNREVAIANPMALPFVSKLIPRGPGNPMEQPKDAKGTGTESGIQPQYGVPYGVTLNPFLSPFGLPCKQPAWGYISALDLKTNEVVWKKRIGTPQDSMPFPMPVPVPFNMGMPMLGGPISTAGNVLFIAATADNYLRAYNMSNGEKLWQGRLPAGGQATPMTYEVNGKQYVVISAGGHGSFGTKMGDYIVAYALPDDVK
Sequence of glucose dehydrogenase whose coenzyme is the pyrroloquinolinequinone derived from Gluconobacter suboxydans (P27175 34-808): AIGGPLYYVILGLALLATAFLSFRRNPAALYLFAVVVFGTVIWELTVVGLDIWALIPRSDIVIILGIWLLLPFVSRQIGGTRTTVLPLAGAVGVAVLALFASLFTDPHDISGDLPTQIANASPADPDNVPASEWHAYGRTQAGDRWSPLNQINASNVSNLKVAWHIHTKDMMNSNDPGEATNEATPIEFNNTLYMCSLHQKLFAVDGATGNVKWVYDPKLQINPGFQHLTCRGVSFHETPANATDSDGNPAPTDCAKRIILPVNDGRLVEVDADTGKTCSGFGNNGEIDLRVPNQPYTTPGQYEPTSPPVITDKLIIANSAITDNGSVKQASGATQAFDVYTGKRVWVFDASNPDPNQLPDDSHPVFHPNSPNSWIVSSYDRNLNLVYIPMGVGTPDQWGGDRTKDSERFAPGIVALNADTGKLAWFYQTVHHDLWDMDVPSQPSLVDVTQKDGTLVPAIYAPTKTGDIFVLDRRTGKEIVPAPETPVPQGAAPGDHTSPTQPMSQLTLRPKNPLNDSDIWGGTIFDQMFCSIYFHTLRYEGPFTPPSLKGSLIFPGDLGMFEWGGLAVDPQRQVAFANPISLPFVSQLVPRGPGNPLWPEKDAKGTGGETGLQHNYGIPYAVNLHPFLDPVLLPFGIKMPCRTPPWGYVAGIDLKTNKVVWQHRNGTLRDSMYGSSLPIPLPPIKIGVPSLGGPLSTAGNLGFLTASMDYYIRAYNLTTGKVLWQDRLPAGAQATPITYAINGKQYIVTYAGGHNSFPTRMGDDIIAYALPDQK

Compound | Inhibition (%) [1] | Inhibition (%) [1, 7] | Activity of the enzyme on the substrate (in words) ([2]; summary of Tables 1 and 2) | further results
NN=C(N)N.O=S(=O)(O)O [Aminoguanidine sulfate] | 1.1% |  |  | 
O=S(=O)([O-])c1cc(O)c(O)c(S(=O)(=O)[O-])c1.[Na+].[Na+] [Tirone] | 2.5% |  |  | 
N[C@@H]1CON=C1O [Cycloserine] |  | 3.6% |  | 
OO [H2O2] | 1.7% |  |  | 
O=C(CO)[C@@H](O)[C@H](O)[C@@H](O)CO [L-Sorbose] |  |  | Almost no activity; also recorded: almost no effect | Relative activity (%) [2, 8]: 0.1> %
CC(C)(S)C(N)C(=O)O (racemic) [DL-Penicillamine] |  | 4.3% |  | 
O=C(O)C(O)C(O)C(=O)O (stereo not drawn) [Meso-tartaric acid] |  | 5.6% |  | 
O=C[C@H](O)[C@@H](O)[C@H](O)[C@H](O)COP(=O)(O)O [D-Glucose-6-phosphate] |  |  | lower activity; also recorded: weakly | Relative activity (%) [2, 8]: 1.1%
O=C[C@H](O)[C@@H](O)[C@@H](O)CO [L-Arabinose] |  |  | Almost no activity; also recorded: almost no effect | Relative activity (%) [2, 8]: 0.1> %
O=[N+]([O-])[O-].[Ag+] [AgNO3] | 99.4% |  |  | Inhibitory effect (in words) [1]: highest; also recorded: inhibited potently
O=C(O)[C@@H](O)[C@H](O)C(=O)O [D-Tartaric acid] |  | 8.5% |  | 
[Cl][Ni][Cl] [NiCl2] | 16.5% |  |  | 
Acriflavine |  | 49.0% |  | 
O=P(O)(O)O[C@H]1O[C@H](CO)[C@@H](O)[C@H](O)[C@H]1O [D-Glucose-1-phosphate] |  |  | Almost no activity; also recorded: almost no effect | Relative activity (%) [2, 8]: 0.1> %
[Cl][Cd][Cl] [CdCl2] | 0.8% |  |  | 
O=C(O)CC(O)(CC(=O)O)C(=O)O [Citric acid] |  | 5.6% |  | 
O=C(O)c1ccccc1[N+](=O)[O-] [2-Nitrobenzoic acid] |  | 44.3% |  | 
[Cl-].[Na+] [NaCl] | 2.5% |  |  | 
OC[C@H]1O[C@H](O[C@H]2[C@H](O)[C@@H](O)[C@H](O)O[C@@H]2CO)[C@H](O)[C@@H](O)[C@@H]1O [Maltose] |  |  | lower activity; also recorded: weakly | Activity on maltose [3]: 3.2%; Activity on maltose [4]: 5%; Activity on maltose [5]: 3%; Relative activity (%) [2, 8]: 1.4%; Relative activity (%) [2, 9]: 0.5%; Relative activity (%) [2, 10]: 2.8%
c1cnc2c(c1)ccc1cccnc12 [1,10-Phenanthroline] |  | 62.0% |  | Inhibitory effect ([1]; 1 mM final concentration, methanol 10% (v/v)): 62.0%; Inhibit (%) ([1]; 5 mM final concentration, methanol 10% (v/v)): 76%; Inhibit (%) ([1]; 10 mM final concentration, methanol 10% (v/v)): 85%; Inhibit (%) ([1]; 25 mM final concentration, methanol 10% (v/v)): 91%; Inhibit (%) ([1]; 50 mM final concentration, methanol 10% (v/v)): 95%; Inhibition (in words) [6]: not inhibited
O=C(O)[C@H](O)[C@@H](O)[C@H](O)[C@H](O)CO [Gluconic acid] |  |  |  | Activity of the enzyme on the substrate (in words) [2]: Almost no activity; also recorded: almost no effect; Relative activity (%) [2]: 0.1> %
[Cl][Hg][Cl] [HgCl2] |  | 100% |  | Inhibitory effect (in words) ([1]; additive 1 mM final concentration, listed as Hg^2+): highest; also recorded: inhibited potently
O=CC[C@@H](O)[C@H](O)[C@H](O)CO [2-Deoxy-D-glucose] |  |  |  | Relative activity (%) [2, 8]: 48%

Compound | Inhibition (%) [1] | Inhibition (%) [1, 7] | Activity of the enzyme on the substrate (in words) ([2]; summary of Tables 1 and 2) | further results
O=C(O)CC(O)C(=O)O (stereo not shown) [Malic acid] |  | 8.1% |  | 
CoCl2 | 7.0% |  |  | 
[Cl-].[Li+] [LiCl] |  | 0.9% |  | 
c1ccc(-c2ccccn2)nc1 [2,2′-Bipyridine] |  | 10.8% |  | 
[Cl][Fe]([Cl])[Cl] [FeCl3] | 25.0% |  |  | 
O=C(O)/C=C/C(=O)O [Fumaric acid] |  | 3.4% |  | 
[Cl][Sn][Cl] [SnCl2] | 45.5% |  |  | 
[Cl-].[Cl-].[Mg+2] [MgCl2] | 2.8% |  |  | 
O=C[C@H](O)[C@@H](O)[C@H](O)CO [D-Xylose] |  |  |  | Relative activity (%) [2, 8]: 9.1%
O=C[C@H](O)[C@@H](O)[C@H](O)[C@H](O)CO [D-Glucose] |  |  | higher activity; also recorded: potently | Km [2]: 49.7 mM; Relative activity (%) [2, 8]: 100%; Relative activity (%) [2, 9]: 100%; Relative activity (%) [2, 10]: 100%
C[C@H](O)[C@H](O)[C@@H](O)[C@@H](O)C=O [L-Rhamnose] |  |  | Almost no activity; also recorded: almost no effect | Relative activity (%) [2, 8]: 0.1> %
OC[C@H]1O[C@@H](O[C@H]2[C@H](O)[C@@H](O)[C@H](O)O[C@@H]2CO)[C@H](O)[C@@H](O)[C@@H]1O [D-Cellobiose] |  |  | lower activity; also recorded: weakly | Relative activity (%) ([2]; substrate 193 mM final, activity on D-glucose = 100%): 2%
OCC(O)CO [Glycerol] |  |  | Almost no activity; also recorded: almost no effect | Relative activity (%) [2, 8]: 0.1> %
OC[C@@H](O)[C@@H](O)[C@H](O)[C@H](O)CO [D-Mannitol] |  |  | Almost no activity; also recorded: almost no effect | Relative activity (%) [2, 8]: 0.1> %
CC(O)C(=O)O.CCOc1ccc2nc3cc(N)ccc3c(N)c2c1 [Acrinol] |  | 29.0% |  | 
OC[C@H]1O[C@H](OC[C@H]2O[C@H](O[C@]3(CO)O[C@H](CO)[C@@H](O)[C@@H]3O)[C@H](O)[C@@H](O)[C@@H]2O)[C@H](O)[C@@H](O)[C@H]1O [D-Raffinose] |  |  | Almost no activity; also recorded: almost no effect | Relative activity (%) [2, 11]: 0.1> %
Oc1cccc2cccnc12 [8-Quinolinol] | 13.9% |  |  | 
CCN(CC)CCCC(C)Nc1c2ccc(Cl)cc2nc2ccc(OC)cc12 (stereo not shown) [Quinacrine] |  | 5.0% |  | 
CCO [Ethanol] |  |  | Almost no activity; also recorded: almost no effect | Relative activity (%) [2, 8]: 0.1> %
O=C[C@@H](O)[C@@H](O)[C@H](O)[C@H](O)CO [D-Mannose] |  |  | lower activity; also recorded: weakly | Relative activity (%) [2, 8]: 2.8%
[Cl-].[Cl-].[Zn+2] [ZnCl2] | 0% |  |  | 
NCCS [Cysteamine] |  | 9.8% |  | 
OC[C@H]1OC[C@H](O)[C@@H](O)[C@@H]1O [1,5-Anhydro-D-glucitol] |  |  | lower activity; also recorded: weakly | Relative activity (%) [2, 8]: 2%

Compound | Inhibition (%) [1] | Inhibition (%) [1, 7] | Activity of the enzyme on the substrate (in words) ([2]; summary of Tables 1 and 2) | further results
[N-]=[N+]=[N-].[Na+] [NaN3] | 0% |  |  | 
O=C[C@H](O)[C@H](O)[C@H](O)CO [D-Ribose] |  |  | Almost no activity; also recorded: almost no effect | Relative activity (%) [2, 8]: 0.1> %
O=C(O)/C=C\C(=O)O [Maleic acid] |  | 26.2% |  | 
OC[C@H]1O[C@@H](O[C@H]2[C@H](O)[C@@H](O)C(O)O[C@@H]2CO)[C@H](O)[C@@H](O)[C@H]1O (stereo partly shown) [Lactose] |  |  | Almost no activity; also recorded: almost no effect | Relative activity (%) [2, 8]: 0.1> %
O=C(O)CI [Iodoacetic acid] | 9.5% |  |  | 
[Ca+2].[Cl-].[Cl-] [CaCl2] | 5.7% |  |  | 
O=C[C@H](O)[C@@H](O)[C@@H](O)[C@H](O)CO [D-Galactose] |  |  | lower activity; also recorded: weakly | Relative activity (%) [2, 8]: 1.2%
[Cl][Al]([Cl])[Cl] [AlCl3] | 0% |  |  | 
[Cl][Pb][Cl] [PbCl2] | 2.7% |  |  | 
CCN1C(=O)C=CC1=O [N-Ethylmaleimide] |  | 1.8% |  | 
O=C(O)CN(CCN(CC(=O)O)CC(=O)O)CC(=O)O [EDTA] | 0.4% |  |  | 
NC(N)=O [Urea] |  | 1.9% |  | 
O=C(O)c1ccccc1 [Benzoic acid] | 0% |  |  | 
TritonX-100 |  | 6.2% |  | 
OC[C@H]1O[C@H](O[C@H]2O[C@H](CO)[C@@H](O)[C@H](O)[C@H]2O)[C@H](O)[C@@H](O)[C@@H]1O [D-Trehalose] |  |  | lower activity; also recorded: weakly | Relative activity (%) [2, 11]: 1.7%
[Ba+2].[Cl-].[Cl-] [BaCl2] |  | 2.6% |  | 
[Cl][Cu][Cl] [CuCl2] | 100% |  |  | Inhibitory effect (in words) [1]: highest; also recorded: inhibited potently
OC[C@@H](O)[C@@H](O)[C@H](O)[C@@H](O)CO [D-Sorbitol] |  |  | Almost no activity; also recorded: almost no effect | Relative activity (%) [2, 8]: 0.1> %
Nc1ccc2cc3ccc(N)cc3nc2c1 [Proflavin] |  | 62.0% |  | 
O=C(CO)[C@@H](O)[C@H](O)[C@H](O)CO [D-Fructose] |  |  | lower activity; also recorded: weakly | Relative activity (%) [2, 8]: 0.86%
OC[C@H]1O[C@@](CO)(O[C@H]2O[C@H](CO)[C@@H](O)[C@H](O)[C@H]2O)[C@@H](O)[C@@H]1O [Sucrose] |  |  | Almost no activity; also recorded: almost no effect | Relative activity (%) [2, 8]: 0.1> %
